Data on 5 compounds can be found in US6514997B2, “Antipicornaviral compounds and compositions, their pharmaceutical uses, and materials for their synthesis” (Agouron Pharmaceuticals, Inc., priority 1999, dated 2003).

Each structure is given as a SMILES string. Like-named read-outs stand apart in the source and are kept apart here.

The subject of data set [1] is strains of human rhinovirus (HRV). The data set can be described thus: Antirhinoviral H1-HeLa cell culture assay (XTT cell protection, EC50), other HRV strains. It counts as cell-based, human rhinovirus in H1-HeLa cells. In a few lines: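 Protection of H1-HeLa cells from rhinovirus was scored two days post-infection via XTT dye reduction read at 450/650 nm, alongside mock-infected cells for toxicity. CC50/EC50 gives the therapeutic index.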
On the technique in general: Tetrazolium assays rely on reduction of a dye to a coloured formazan, in cell work by metabolically active cells.

Data set [2] deals with T1, Recombinant rhinovirus 3C protease, serotype 14 (Human rhinovirus 14, UniProt P03303).
T1 construct: Recombinant rhinovirus 3C proteases; made in house
T1 sequence (P03303 1538-1719): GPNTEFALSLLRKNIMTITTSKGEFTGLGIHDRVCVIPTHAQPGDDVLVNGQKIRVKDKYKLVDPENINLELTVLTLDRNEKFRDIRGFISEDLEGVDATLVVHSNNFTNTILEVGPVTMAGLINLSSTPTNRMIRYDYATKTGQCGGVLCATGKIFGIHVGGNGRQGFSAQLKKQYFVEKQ
Description: Inhibition of rhinovirus 3C protease (FRET assay, kobs/[I]), serotype 14. It counts as biochemical. To be noted: pH 7.6; HRV-14; read-out: kobs/[I] (3C protease inhibition activity). In a few lines:
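kobs/[I] values came from progress curves of reactions started by adding 50-100 nM protease to buffer (50 mM tris pH 7.6, 1 mM EDTA, 2% DMSO) containing compound and ~1 μM quenched DABCYL-EDANS substrate. Rising EDANS fluorescence reported cleavage.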

Data set [3] can be described thus: Cytotoxicity (CC50) in mock-infected H1-HeLa cells, XTT dye reduction. It counts as cell-based, human. As to conditions: human, H1-HeLa cells, mock-infected; line of HRV-14. The gist of the method: (§1)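 XTT dye reduction (formazan, 450/650 nm) in H1-HeLa cells, mock-infected, gave CC50.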
The next data set has as its system H1-HeLa cells. Described as above. It counts as cell-based, human. The gist of the method: as §1
A further data set relates to HRV-14. Description: Antirhinoviral H1-HeLa cell culture assay (XTT cell protection, EC50), HRV-14. Format: cell-based, human rhinovirus (HRV) serotype-14 in H1-HeLa cells. To be noted: Rhinovirus B, HRV14, H1-HeLa. In a few lines:
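XTT dye reduction (450/650 nm) measured survival of H1-HeLa cells two days after HRV-14 infection at m.o.i. 0.13 in the presence of compound, giving EC50. The therapeutic index is CC50 divided by EC50.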

Setting [4] is: H1-HeLa, HRV-1A, read-out: EC50.
Where [5] appears, read: Human rhinovirus sp., HRV3, H1-HeLa, HRV-3, read-out: EC50.
The mark [6] stands for this setting: Human rhinovirus sp., HRV9, H1-HeLa, HRV-9, read-out: EC50.
The mark [7] stands for this setting: Human rhinovirus sp., HRV10, H1-HeLa, HRV-10, read-out: EC50.
[8] abbreviates: Human rhinovirus sp., HRV16, H1-HeLa, HRV-16, read-out: EC50.
The mark [9] stands for this setting: Human rhinovirus sp., HRV25, H1-HeLa, HRV-25, read-out: EC50.
The mark [10] stands for this setting: Human rhinovirus sp., HRV39, H1-HeLa, HRV-39, read-out: EC50.
[11] abbreviates: Human rhinovirus sp., HRV87, H1-HeLa, HRV-87, read-out: EC50.

As for `CCOC(=O)/C=C/[C@H](C[C@@H]1CCNC1=O)NC(=O)[C@H](Cc1ccc(F)cc1)n1cccc(NC(=O)c2cc(C)on2)c1=O` [Compound 25, trans-(2′S,3′″″S,4S)-4-(3′-(4″-Fluorophenyl)-2′-{3′″-[(5″″-methylisoxazole-3″″-carbonyl)amino]-2′-oxo-2′″H-pyridin-1′″-yl}propionylamino)-5-(2′″″-oxopyrrolidin-3′″″-yl)pent-2-enoic Acid Ethyl Ester], the EC50 in data set [1] (setting [4]) came to 15 nM; in data set [1] (H1-HeLa, HRV-2, read-out: EC50) it was 4 nM; in data set [1] (setting [5]), 4 nM; in data set [1] (setting [6]), 10 nM; in data set [1] (setting [7]) it was 4 nM; in data set [1] (setting [8]), 5 nM. Besides, the EC50 was found to be 22 nM in data set [1] (setting [9]), 9 nM in data set [1] (setting [10]), 8 nM in data set [1] (setting [11]) and 2 nM with HRV-14. The kinact/KI in data set [2] stood at 1.25e+06 M⁻¹ s⁻¹. In data set [3], this compound came in with a CC50 at 2 days greater than 10000 nM. For the same compound, the CC50 in the data set on H1-HeLa cells (line of HRV-1A), with H1-HeLa cells (line of HRV-2), with H1-HeLa cells (line of HRV-3), in the data set with H1-HeLa cells (line of HRV-9), in the data set with H1-HeLa cells (line of HRV-10) and in the data set on H1-HeLa cells (line of HRV-16) was greater than 10000 nM in each case. The CC50 in the data set with H1-HeLa cells (line of HRV-25), with H1-HeLa cells (line of HRV-39) and with H1-HeLa cells (line of HRV-87) was greater than 10000 nM each time.

For the compound `CC[C@@H](C(=O)N[C@H](/C=C/C(=O)OC1CCCC1)C[C@@H]1CCNC1=O)n1cccc(NC(=O)c2cc(Cl)on2)c1=O` [Compound 29, trans-(2′S,3″″S,4S)-4-(2′-{3″-[(5′″-Chloroisoxazole-3′″-carbonyl)amino]-2″-oxo-2″H-pyridin-1″-yl}butyrylamino)-5-(2″″-oxopyrroldin-3″″-yl)pent-2-enoic Acid Cyclopentyl Ester], the EC50 is 46 nM in data set [1] (setting [4]), 46 nM in data set [1] (setting [7]) and 79 nM in the data set with HRV-14. For the same compound, in data set [2], the kinact/KI was 148000 M⁻¹ s⁻¹. This compound also returned a CC50 at 2 days in data set [3] greater than 10000 nM. Besides, the 50% cytotoxic concentration (CC50) with H1-HeLa cells (line of HRV-1A) and in the data set with H1-HeLa cells (line of HRV-10) was greater than 10000 nM in each case.

`CC[C@@H](C(=O)N[C@H](/C=C/C(=O)OC(C)(C)C)C[C@@H]1CCNC1=O)n1cccc(NC(=O)c2cc(C)on2)c1=O` [Compound 34, trans-(2′S,3″″S,4S)-4-(2′-{3″-[(5′″-Methylisoxazole-3′″-carbonyl)amino]-2″-oxo-2″H-pyridin-1″-yl}butyrylamino)-5-(2″″-oxopyrrolidin-3″″-yl)pent-2-enoic Acid tert-Butyl Ester]: the EC50 in data set [1] (H1-HeLa, HRV-2, read-out: EC50) amounted to 154 nM; in data set [1] (setting [5]), 61 nM; in data set [1] (setting [6]) it was 593 nM; in data set [1] (setting [8]), 543 nM; in data set [1] (setting [9]), 923 nM; in data set [1] (setting [10]) it was 441 nM. In addition, the EC50 in data set [1] (setting [11]) is 33 nM; in the data set with HRV-14 it was 122 nM. Also, in data set [2], the kinact/KI stood at 45100 M⁻¹ s⁻¹. Also, the CC50 at 2 days in data set [3] was greater than 10000 nM. Besides, the CC50 with H1-HeLa cells (line of HRV-2), with H1-HeLa cells (line of HRV-3), in the data set on H1-HeLa cells (line of HRV-9), in the data set with H1-HeLa cells (line of HRV-16), with H1-HeLa cells (line of HRV-25) and with H1-HeLa cells (line of HRV-39) was greater than 10000 nM in each case. Further, the CC50 in the data set with H1-HeLa cells (line of HRV-87) was greater than 10000 nM.

For the compound `CCOC(=O)/C=C/[C@H](C[C@@H]1CCNC1=O)NC(=O)[C@@H]1CCc2ccc(NC(=O)c3cc(C)on3)c(=O)n21` [Compound 37, trans-(3′S,3′″S,4S)-4-({6′-[(5″-Methylisoxazole-3″-carbonyl)amino]-5′-oxo-1′,2′,3′,5′-tetrahydroindolizine-3′-carbonyl}amino)-5-(2′″-oxopyrrolidin-3′″-yl)-pent-2-enoic Acid Ethyl Ester], the EC50 in data set [1] (setting [4]) was found to be 108 nM; in data set [1] (H1-HeLa, HRV-2, read-out: EC50) it was 37 nM; in data set [1] (setting [5]), 43 nM; in data set [1] (setting [6]) it was 121 nM; in data set [1] (setting [7]) it was 41 nM; in data set [1] (setting [8]), 72 nM. The EC50 in data set [1] (Human rhinovirus sp., HRV25, H1-HeLa) was determined as 162 nM; in data set [1] (setting [10]) it was 16 nM; in data set [1] (setting [11]), 58 nM; in the data set on HRV-14, 162 nM. In addition, in data set [2], the kinact/KI was 177000 M⁻¹ s⁻¹. The CC50 at 2 days in data set [3] is greater than 10000 nM. The CC50 with H1-HeLa cells (line of HRV-1A), in the data set on H1-HeLa cells (line of HRV-2), with H1-HeLa cells (line of HRV-3), with H1-HeLa cells (line of HRV-9), in the data set on H1-HeLa cells (line of HRV-10) and with H1-HeLa cells (line of HRV-16) was greater than 10000 nM throughout. Further, the CC50 with H1-HeLa cells (line of HRV-25), in the data set on H1-HeLa cells (line of HRV-39) and in the data set on H1-HeLa cells (line of HRV-87) was greater than 10000 nM in each case.

Consider `CCOC(=O)/C=C/[C@H](C[C@@H]1CCNC1=O)NC(=O)[C@@H]1CCc2c(Cl)cc(NC(=O)c3cc(C)on3)c(=O)n21` [Compound 39, trans-(3′S,3′″S,4S)-4-({8′-Chloro-6′-[(5″-methylisoxazole-3″-carbonyl)amino]-5′-oxo-1′,2′,3′,5′-tetrahydroindolizine-3′-carbonyl}amino)-5-(2′″-oxopyrrolidin-3′″-yl)-pent-2-enoic Acid Ethyl Ester], for which the EC50 was determined as 42 nM in data set [1] (setting [4]); 16 nM in data set [1] (H1-HeLa, HRV-2, read-out: EC50); 39 nM in data set [1] (setting [5]); 48 nM in data set [1] (setting [6]); 88 nM in data set [1] (setting [7]); 57 nM in data set [1] (setting [8]). Moreover, the EC50 in data set [1] (setting [9]) was found to be 107 nM; in data set [1] (setting [10]), 48 nM; in data set [1] (setting [11]), 17 nM; with HRV-14, 40 nM. Moreover, the kinact/KI in data set [2] was determined as 200000 M⁻¹ s⁻¹. In data set [3], this compound returned a CC50 at 2 days greater than 10000 nM. The CC50 with H1-HeLa cells (line of HRV-1A), with H1-HeLa cells (line of HRV-2), with H1-HeLa cells (line of HRV-3), in the data set with H1-HeLa cells (line of HRV-9), in the data set on H1-HeLa cells (line of HRV-10) and in the data set with H1-HeLa cells (line of HRV-16) was greater than 10000 nM throughout. Besides, the CC50 in the data set on H1-HeLa cells (line of HRV-25), in the data set on H1-HeLa cells (line of HRV-39) and in the data set on H1-HeLa cells (line of HRV-87) was greater than 10000 nM throughout.

In general, EC50 refers to the concentration giving half of the maximal effect. Usually CC50 stands for the concentration giving 50% cytotoxicity.
